In patent US12577300B2, “Neutralizing antibodies to human endothelin” (Father Flanagan's Boys' Home Doing Business as Boys Town …, priority 2019, dated 2026):

Experiments:
[1] = given once daily; cited from earlier work
RAC1/CDC42 Rho GTPases = target: T1, RAC1/CDC42 Rho GTPases (Mus musculus, UniProt P63001); settings: Zallocchi et al. 2013; cited from earlier work
T1 construct: host or cells: Alport mice (in vivo)

endothelin A receptor [2] = target: T2, endothelin A receptor (Mus musculus, UniProt Q61614); settings: Dufek et al. 2016, cited from earlier work
T2 construct: Endothelin A receptors are expressed primarily on mesangial cells; endogenous in cells; host or cells: Alport mice (in vivo)
T2 sequence (Q61614 21-427): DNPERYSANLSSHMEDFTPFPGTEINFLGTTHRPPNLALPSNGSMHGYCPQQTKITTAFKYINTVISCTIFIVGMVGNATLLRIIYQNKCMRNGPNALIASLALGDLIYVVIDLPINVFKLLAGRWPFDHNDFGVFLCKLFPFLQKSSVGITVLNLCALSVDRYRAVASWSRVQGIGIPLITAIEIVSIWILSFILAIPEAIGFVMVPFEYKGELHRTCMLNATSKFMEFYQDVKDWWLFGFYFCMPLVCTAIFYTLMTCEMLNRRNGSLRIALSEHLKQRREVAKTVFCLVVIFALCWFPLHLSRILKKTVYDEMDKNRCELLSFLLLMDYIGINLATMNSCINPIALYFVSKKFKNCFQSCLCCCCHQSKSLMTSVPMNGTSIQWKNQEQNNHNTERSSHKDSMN

endothelin A receptor [3] = target: T2, endothelin A receptor; test: Sitaxentan treatment of Alport mice; type: in vivo
Protocol: FIG. 1. […] Alport mice were treated with the indicated dose of Sitaxentan once daily from 2 to 7 weeks of age. Real time RT-PCR analysis for the indicated transcripts was performed on glomerular RNA.
FIGS. 3A and 3B. […] 129-Alport animals were treated with the endothelin A receptor specific blocking agent Sitaxentan from 2 weeks to 7 weeks of age.
FIGS. 4A and 4B. […] In FIG. 4A, urine was collected at the indicated timepoints and analyzed for albumin using an ELISA kit. Albumin measures were normalized to urinary creatinine. […] In FIG. 4B, BUN measures were performed on serum from 7-week-old vehicle or Sitaxentan-treated Alport mice.

endothelin A receptor [4] = target: T2, endothelin A receptor; test: Sitaxentan treatment of Alport mice; type: in vivo; settings: 30 mg/kg once daily
[5] = tested on: pro-fibrotic genes, including Snail1; test: QIAGEN mouse fibrosis microarray of glomerular RNA from treated Alport mice; type: in vivo
Protocol: FIG. 2. Glomerular RNA from Alport mice treated with vehicle, Sitaxentan, or nAb #7 was analyzed using QIAGEN mouse fibrosis microarray. The data reveal that Sitaxentan (and Ambrisentan) induce a number of pro-fibrotic genes, including Snail1, which is known to play a key role in promoting renal fibrosis (Grande et al., 2015, Nat Med; 21(9):989-97). […] The data is consistent with aberrant signaling activation by classic small molecule ETAR antagonists that results in pro-fibrotic effects, defining a clear potential advantage of the biologic over small molecule approach.
Glomerular RNA from sitaxentan-treated and neutralizing antibody-treated mice was analyzed using QIAGEN mouse fibrosis microarrays.

ACE = target: T3, ACE (Mus musculus, UniProt P09470); settings: cited from earlier work
T3 construct: host or cells: 129 Sv autosomal Alport mice (in vivo)
T3 sequence (P09470 35-1312): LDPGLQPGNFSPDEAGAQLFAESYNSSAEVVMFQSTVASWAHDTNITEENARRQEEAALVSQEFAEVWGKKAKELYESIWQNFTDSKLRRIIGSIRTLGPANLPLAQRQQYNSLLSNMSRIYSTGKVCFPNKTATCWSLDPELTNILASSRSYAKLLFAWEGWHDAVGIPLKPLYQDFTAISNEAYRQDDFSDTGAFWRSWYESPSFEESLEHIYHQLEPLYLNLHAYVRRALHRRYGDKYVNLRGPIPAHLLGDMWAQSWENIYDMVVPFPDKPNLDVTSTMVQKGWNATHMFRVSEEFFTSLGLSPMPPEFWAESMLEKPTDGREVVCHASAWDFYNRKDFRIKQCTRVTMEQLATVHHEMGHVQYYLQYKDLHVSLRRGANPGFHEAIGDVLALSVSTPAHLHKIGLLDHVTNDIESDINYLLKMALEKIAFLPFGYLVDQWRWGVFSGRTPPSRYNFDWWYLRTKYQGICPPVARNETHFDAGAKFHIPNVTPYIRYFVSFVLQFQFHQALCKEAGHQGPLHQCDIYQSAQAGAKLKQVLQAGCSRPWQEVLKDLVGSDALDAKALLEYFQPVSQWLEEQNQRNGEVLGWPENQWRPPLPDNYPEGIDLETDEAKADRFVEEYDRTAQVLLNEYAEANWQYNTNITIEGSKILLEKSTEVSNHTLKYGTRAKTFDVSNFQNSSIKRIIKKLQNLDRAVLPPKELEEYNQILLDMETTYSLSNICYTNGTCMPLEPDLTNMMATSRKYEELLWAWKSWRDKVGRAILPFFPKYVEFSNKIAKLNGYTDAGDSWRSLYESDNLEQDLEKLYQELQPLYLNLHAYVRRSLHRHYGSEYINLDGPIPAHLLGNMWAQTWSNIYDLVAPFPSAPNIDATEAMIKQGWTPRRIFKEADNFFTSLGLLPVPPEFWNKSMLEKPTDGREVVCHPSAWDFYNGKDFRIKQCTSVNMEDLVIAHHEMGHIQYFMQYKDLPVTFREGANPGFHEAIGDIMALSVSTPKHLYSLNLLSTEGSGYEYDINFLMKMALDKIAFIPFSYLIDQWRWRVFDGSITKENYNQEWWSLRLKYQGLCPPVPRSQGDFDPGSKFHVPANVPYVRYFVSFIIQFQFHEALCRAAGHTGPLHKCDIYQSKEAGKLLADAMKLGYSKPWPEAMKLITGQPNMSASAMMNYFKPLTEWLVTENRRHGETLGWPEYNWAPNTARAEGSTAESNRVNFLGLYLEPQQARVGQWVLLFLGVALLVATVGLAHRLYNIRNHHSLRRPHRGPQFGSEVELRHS

For `COC(c1ccccc1)(c1ccccc1)[C@H](Oc1nc(C)cc(C)n1)C(=O)O` [Ambrisentan], the half-life in mice [1] is listed as 6 h.
In the case of `CCN(CC)CCCC(C)Nc1nc(C)cc(Nc2ccc3nc(C)cc(N)c3c2)n1` (stereo not drawn) [NCS 23766], the “laminin 211 deposition in the Alport GBM” value (RAC1/CDC42 Rho GTPases) is given as “largely blocked”.
In the case of `Cc1cc2c(cc1CC(=O)c1sccc1S(=O)(=O)Nc1onc(C)c1Cl)OCO2` [Sitaxentan], the blood pressure (endothelin A receptor [2]; 129 Sv autosomal Alport mouse model) is listed as “no effect on blood pressure”, the increase in lifespan (endothelin A receptor [2]; Alport mice) is listed as 20% and the “GBM damage vs vehicle-treated Alport mice” value (endothelin A receptor [2]) is listed as “significantly reduced GBM damage”. For the same compound, the therapeutic effect (endothelin A receptor [3]; 5 mg/kg) was “little to no significant therapeutic effect”, the BUN (endothelin A receptor [3]; 30 mg/kg dose) was “not statistically different from vehicle treated Alport mice” and the fibrosis scores (endothelin A receptor [3]; 30 mg/kg dose) was “not statistically different from vehicle treated Alport mice”. For the same compound, the glomerulosclerosis scores (endothelin A receptor [3]; 30 mg/kg dose) was “not statistically different from vehicle treated Alport mice”, the proteinuria (endothelin A receptor [3]; 30 mg/kg dose) was “not statistically different from vehicle treated Alport mice” and the “GBM dysmorphology (TEM)” value (endothelin A receptor [3]; 7-week-old Alport mice) was “normalized”. For the same compound, the “serum BUN levels” value (endothelin A receptor [3]; 7-week-old mice) was “reduces”, the “GBM laminin α2 deposition” value (endothelin A receptor [3]; 129 Sv/J autosomal Alport mice) was “greatly reduced” and the “age at which measurable urinary albumin was first detected” value (endothelin A receptor [3]; albumin ELISA normalized to urinary creatinine) was 6 weeks of age. The “renal disease (renotoxicity)” value (endothelin A receptor [3]; increasing doses above 10 mg/kg) was “exacerbated renal disease”, the “infiltration of glomerular capillaries with mesangial filopodia” value (endothelin A receptor [3]; integrin α8 immunopositivity) was “greatly reduced” and the Alport pathogenesis (endothelin A receptor [3]; low dose 10 mg/kg once daily, 2 to 7 weeks of age) was “ameliorated Alport pathogenesis”. For the same compound, the “glomerular mRNA expression of cytokines and metalloproteinases (MMP-9, MMP-10, MMP-12, MCP-1, IL-6)” value (endothelin A receptor [3]; real time RT-PCR) was “reduced to near control levels”, the “% glomerulosclerosis” value (endothelin A receptor [3]; treated 2 to 7 weeks of age) was “reduced to near control levels” and the fibrosis scores (endothelin A receptor [3]; treated 2 to 7 weeks of age) was “reduced to near control levels”. The “onset and progression of proteinuria” value (endothelin A receptor [3]; treated 2 to 7 weeks of age) was “significantly delays”, the half-life in mice [1] was 6 h and the lifespan vs vehicle (endothelin A receptor [4]) was “shorter lifespan than vehicle treated Alport mice”. The “induction of pro-fibrotic / pro-inflammatory genes incl. Snail1 in glomeruli” value [5] was “markedly inducing”.
In the case of `CCOC(=O)[C@H](CCc1ccccc1)N[C@@H](C)C(=O)N1[C@H](C(=O)O)C[C@@H]2CCC[C@@H]21` [ramipril], the “degree of GBM damage” value (ACE; Gross et al. 2003) is given as “comparable to untreated Alport mice”, the lifespan (ACE; administered before onset of proteinuria, Gross et al. 2003) is given as “doubled” and the blood pressure (ACE; mouse, in vivo) is given as “reduces blood pressure”.
